Assay results from patent publication US20070225284A1, “Inhibitors of soluble adenylate cyclase” (priority 2006, published 2007).

What was measured:
[1] = target: soluble, sperm-specific adenylate cyclase (sAC) (Homo sapiens, UniProt Q96PN6); experiment: sAC-Assay (HTRF cAMP detection); assay type: biochemical; settings: read-out: IC50 (inhibition of the soluble adenylate cyclase)
From the text: In a suitable buffer system, the soluble, sperm-specific adenylate cyclase catalyzes the reaction of adenosine triphosphate (ATP) to cyclic adenosine monophosphate (cAMP) and pyrophosphate. Free cAMP that is generated in this way is then used in a competitive detection process, in which the binding of a europium kryptate (Eu[K])-labeled anti-cAMP antibody (anti cAMP-Eu[K]-AK) to a cAMP-molecule-labeled, modified allophycocyanine-1 molecule (cAMP-XL665) is prevented. In the absence of exogenic cAMP, after excitation at 335 nm, it results in a fluorescence resonance energy transfer (FRET) between the anti cAMP-Eu[K]-AK (FRET-donor) and the cAMP-XL665 molecule (FRET-acceptor). This process is quantified at different times (time-resolved) based on the emission of FRET-acceptor XL665 (665 nm and 620 nm). A signal drop (measured as a wave ratio; calculation formula: [(E665 nm/E620 nm)×10000]) can be attributed to the presence of cAMP and thus to the activity of sAC.
First, 1.5 μl of the test substance (in 30% DMSO), only 30% DMSO in the solvent controls, is introduced per recess in a 384-hole test plate (polystyrene; 384, NV). […]
After an additional incubation of 90 minutes at room temperature, the HTRF result is measured either on the Packard Discovery or with the RubiStar HTRF measuring device (Delay: 50 μs; Integration time: 400 μs).

[2] = statement on known sAC inhibitors; cited from earlier work

Chain of soluble, sperm-specific adenylate cyclase (sAC) (Q96PN6 whole entry): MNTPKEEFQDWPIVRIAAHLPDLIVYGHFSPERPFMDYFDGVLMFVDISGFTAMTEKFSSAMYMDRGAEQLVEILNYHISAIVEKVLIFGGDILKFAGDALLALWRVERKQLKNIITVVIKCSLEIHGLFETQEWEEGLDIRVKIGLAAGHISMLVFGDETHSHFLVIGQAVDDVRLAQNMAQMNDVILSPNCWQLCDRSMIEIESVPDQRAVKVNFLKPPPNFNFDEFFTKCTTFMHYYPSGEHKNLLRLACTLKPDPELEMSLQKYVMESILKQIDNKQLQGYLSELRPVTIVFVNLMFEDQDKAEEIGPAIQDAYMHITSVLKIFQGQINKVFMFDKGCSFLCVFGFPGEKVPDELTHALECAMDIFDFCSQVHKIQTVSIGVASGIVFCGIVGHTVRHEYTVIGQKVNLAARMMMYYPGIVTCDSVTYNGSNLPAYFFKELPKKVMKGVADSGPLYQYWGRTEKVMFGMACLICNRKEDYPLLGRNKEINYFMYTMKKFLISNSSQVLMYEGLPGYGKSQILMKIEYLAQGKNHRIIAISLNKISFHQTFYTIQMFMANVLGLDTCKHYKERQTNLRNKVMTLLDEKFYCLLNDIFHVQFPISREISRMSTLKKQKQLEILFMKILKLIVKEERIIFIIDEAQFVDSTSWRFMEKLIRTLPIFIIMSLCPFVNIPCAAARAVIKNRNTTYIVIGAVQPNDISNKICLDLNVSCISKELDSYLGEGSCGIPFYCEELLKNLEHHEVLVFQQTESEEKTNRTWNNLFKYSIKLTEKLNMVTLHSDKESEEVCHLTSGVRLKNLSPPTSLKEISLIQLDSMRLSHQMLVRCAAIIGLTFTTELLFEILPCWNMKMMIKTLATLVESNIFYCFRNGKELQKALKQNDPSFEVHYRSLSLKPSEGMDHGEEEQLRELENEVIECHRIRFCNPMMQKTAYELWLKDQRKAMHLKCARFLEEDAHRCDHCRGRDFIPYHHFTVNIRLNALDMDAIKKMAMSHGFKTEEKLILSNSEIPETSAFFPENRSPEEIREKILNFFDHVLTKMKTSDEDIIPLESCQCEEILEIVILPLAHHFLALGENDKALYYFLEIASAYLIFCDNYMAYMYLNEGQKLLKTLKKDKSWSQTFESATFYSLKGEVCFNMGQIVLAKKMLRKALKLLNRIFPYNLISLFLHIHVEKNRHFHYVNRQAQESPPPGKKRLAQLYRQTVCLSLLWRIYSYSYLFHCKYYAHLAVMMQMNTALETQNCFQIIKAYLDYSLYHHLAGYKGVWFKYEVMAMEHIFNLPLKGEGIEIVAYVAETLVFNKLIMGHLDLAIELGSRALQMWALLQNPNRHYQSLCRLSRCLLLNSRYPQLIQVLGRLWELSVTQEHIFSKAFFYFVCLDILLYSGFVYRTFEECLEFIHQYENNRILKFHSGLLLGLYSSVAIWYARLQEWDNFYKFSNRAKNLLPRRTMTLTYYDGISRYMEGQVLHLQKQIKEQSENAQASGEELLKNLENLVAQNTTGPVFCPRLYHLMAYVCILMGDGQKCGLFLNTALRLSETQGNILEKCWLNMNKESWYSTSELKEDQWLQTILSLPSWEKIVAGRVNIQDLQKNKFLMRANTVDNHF

| IC50 [1] | SMILES | toxicity [2] |
| --- | --- | --- |
| 2600 nM | CN(c1ccc2[nH]c(C(=O)NCCN3CCOCC3)c(-c3ccccc3)c2c1)S(=O)(=O)c1ccc(C(C)(C)C)cc1 |  |
| 1300 nM | CC(O)CNC(=O)c1[nH]c2ccc(N(C)S(=O)(=O)c3ccc(C(C)(C)C)cc3)cc2c1-c1ccccc1 (racemic) [Example 4, (±)-5-[(4-tert-Butyl-phenylsulfonyl)-methyl-amino]-3-phenyl-1H-indole-2-carboxylic acid-(2-hydroxy-propyl)-amide] |  |
|  | Cc1cc2c(C(C)C)c(O)c(O)c(C=O)c2c(O)c1-c1c(C)cc2c(C(C)C)c(O)c(O)c(C=O)c2c1O [gossypol] | inherently toxic |
